Test results from patent US9035044B2, “L-proline and citric acid co-crystals of (2S, 3R, 4R, 5S,6R)-2-(3-((5-(4-fluorophenyl)thiopen-2-yl)methyl)4-methylphenyl)-6-(hydroxymethyl)tetrahydro-2H-pyran-3,4,5-triol” (Janssen Pharmaceutica NV, priority 2011, dated 2015).

Columns and labels:
Assay type in all cases: physicochemical
[1] = Dynamic vapor sorption/desorption (DVS); details: for hygroscopicity: 0% RH to 90% RH, 2 full cycles; for form conversion by pXRD after the DVS run: isolated at 0% RH
Protocol: DVS: Moisture sorption was characterized on a DVS-1 Instrument (Surface Measurement Systems, Allentown, Pa.). In each case, the sample was subject to a drying curve from ambient to 0% relative humidity (RH), followed by two cycles of sorption (from 0% RH to 90% RH) and desorption (from 90% RH to 0% RH) in 10% RH steps at 25° C. At each step the sample was allowed to equilibrate at a specific % RH and thus, stabilize in terms of weight gained or lost prior to the instrument moving to the next step within the method.
The crystalline L-proline co-crystal of the compound of formula (I-X) was further characterized using Dynamic Vapor Sorption (DVS), measuring from 0% RH to 90% RH (2 full cycles) at 25° C.
The crystalline citric acid co-crystal of the compound of formula (I-X) was further characterized using Dynamic Vapor Sorption (DVS), measuring from 0% RH to 90% RH (2 full cycles) at 25° C.

[2] = Chemical stability/degradation of stored samples by HPLC; details: 1 week
Protocol: (§1) Samples of the crystalline L-proline co-crystal of the compound of formula (I-X) being tested for physical stability, sampled at 1 day, 1 week, 2 weeks and 4 weeks, were further tested for chemical stability/degradation. Crystalline L-proline co-crystal of the compound of formula (I-X) (˜10 mg) was diluted with a 50:50 water:acetonitrile solution (10 mL), and then further diluted 10 fold for HPLC measurements.
as §1, with “citric acid” for “L-proline”

[3] = Physical stability on storage in serum crimp vials; details: up to 4 weeks; for physical stability: 5° C. sealed, 25° C./60% RH open, 40° C. sealed, 40° C./75% RH open, 60° C. sealed, 80° C. sealed
Protocol: (§2) The crystalline L-proline co-crystal of the compound of formula (I-X) was tested for physical stability by storing about 10 mg of the co-crystal in 10 mL serum crimp vials, under following conditions: (a) 5° C., sealed; (b) 25° C./60% RH, open; (c) 40° C., sealed; (d) 40° C./75% RH, open; (e) 60° C., sealed; and (f) 80° C., sealed; with stability data collected at 1 day, 1 week, 2 weeks and 4 weeks.
as §2, with “citric acid” for “L-proline”, “was similarly” for “was”, “in” for “in 10”

[4] = all six storage conditions, 1 day, 2 weeks and 4 weeks
[5] = 25° C./60% RH open and 60° C. sealed, 2 week and 4 week samples
[6] = 40° C./75% RH open and 80° C. sealed, 2 week and 4 week samples

| hygroscopicity ([1]; 25° C.) | mass gain ([1]; between 40% RH and 90% RH, 25° C., lost on desorption with some hysteresis) [%] | form conversion by pXRD after the DVS run [1] | weight gain ([1]; until % RH reached 40%, 25° C.) | chemical stability (HPLC) [2, 4] | degradation peaks (HPLC) [2, 4] | physical stability [3] | visible color changes ([3]; all six storage conditions) | increase in mass ([1]; 0%-80% RH, 25° C., lost again on desorption) [%] | degradation peaks (HPLC) [2, 5] | peak purity (HPLC) [2, 5] [%] | peak purity (HPLC) [2, 6] [%] | chemical stability (HPLC) ([2]; stored at 5° C. sealed and 40° C. sealed, 1 day, 2 weeks and 4 weeks) | degradation on a peak basis ([3]; stored at 25° C./60% RH, 40° C./75% RH, 60° C. or 80° C.) [%] | Structure (SMILES) | degradation peaks (HPLC) [2, 6] |
| --- | --- | --- | --- | --- | --- | --- | --- | --- | --- | --- | --- | --- | --- | --- | --- |
| hygroscopic | 12 | no irreversible form conversion | no weight gain was observed | chemically stable | No degradation peaks were observed | physically stable | no visible color changes | – | – | – | – | – | – | Cc1ccc([C@@H]2O[C@H](CO)[C@@H](O)[C@H](O)[C@H]2O)cc1Cc1ccc(-c2ccc(F)cc2)s1 [crystalline L-proline co-crystal of the compound of formula ] [(2S,3R,4R,5S,6R)-2-(3-((5-(4-fluorophenyl)thiophen-2-yl)methyl)-4-methylphenyl)-6-(hydroxymethyl)tetrahydro-2H-pyran-3,4,5-triol] | – |
| non-hygroscopic | – | no form conversion | – | – | – | physically stable | – | 0.5 | A small degradation peak was observed | > 99 | > 99 | chemically stable | < 0.3 | Cc1ccc([C@@H]2O[C@H](CO)[C@@H](O)[C@H](O)[C@H]2O)cc1Cc1ccc(-c2ccc(F)cc2)s1 [crystalline citric acid co-crystal of the compound of formul] [(2S,3R,4R,5S,6R)-2-(3-((5-(4-fluorophenyl)thiophen-2-yl)methyl)-4-methylphenyl)-6-(hydroxymethyl)tetrahydro-2H-pyran-3,4,5-triol] | A few small degradation peaks were also observed |
